According to patent US7541363B2, “Microcrystal” (Kyowa Hakko Kirin Co., Ltd., priority 2003, dated 2009):

Assays:
adenosine A2 receptor = settings: cited from earlier work
[1] = double bond (vinylene) moiety apt to be isomerized; cited from earlier work
[2] = Comparison of absorption in oral administration (plasma concentration); assay type: in vivo, male rats of SD strain; settings: male SD rats; for Cmax (maximum concentration in plasma): 0.3 mg/mL suspension in 0.5 w/v % methyl cellulose at 10 mL/kg, mean ± s.e.m., three rats
Description: Each of Crystal B (the average particle size of crystals: 181 μm) and Microcrystals B (the average particle size of crystals: 11 μm) obtained in Example 3 was suspended in a 0.5 w/v % aqueous solution of methyl cellulose to prepare a drug liquid (0.3 mg/mL) for administration. The resulting drug liquid was orally administered to male rats of SD strain (body weight: 209 to 233 g; Nippon Charles River) at the dose of 10 mL/kg. Blood of the rat (about 0.3 mL for each time) was sequentially collected from tail vein by using a heparin-treated capillary tube 0.25, 0.5, 1, 2, 4, 6, 8, 12 and 24 hour(s) after the administration. The resulting blood was centrifuged (1,950×g, 10 minutes, 4° C.) and plasma was separated. Concentration of “Compound 1” in the resulting plasma was measured by HPLC and mean value from three rats was calculated. Maximum concentration in plasma (Cmax), the area under the plasma curve of concentration-time curve between the administration and the point which can be determined quantitatively finally (AUC0-t) and the area under the plasma curve of concentration-time curve between the administration and infinitive time (AUC0-∞), of case in which each of Crystals B and Microcrystals B were orally administered to the rat, are shown in Table 2. Incidentally, conditions for the measurement by HPLC are as follows. Instrument for analysis: Series L-7000 (manufactured by Hitachi) Column: Ultron VX-ODS (φ4.6×150 mm) Column temperature: 30° C. Mobile phase: 10 mmol/L acetate buffer (pH 5.7)/acetonitrile=53/47 […] Detecting condition: UV 360 nm

[3] = Crystallinity by powder X-ray diffraction; assay type: physicochemical
Source text: Although there is no particular limitation for the “microcrystal(s) of (E)-8-(3,4-dimethoxystyryl)-1,3-diethyl-7-methyl-3,7-dihydro-1H-purine-2,6-dione having an average particle size of less than 50 μm” (that is “microcrystal(s) of Compound 1”) of the present invention so far as it is the crystalline Compound 1 having an average particle size of less than 50 μm, among them microcrystal(s) having an average particle size of 0.5 to 20 μm is/are preferable. The “microcrystal(s) of Compound 1” having a crystallinity of 20% or more is/are more preferable. Among them, the “microcrystal(s) of Compound 1” having a crystallinity of 30% or more is/are still more preferable and the “microcrystal(s) of Compound 1” having a crystallinity of 40% or more is/are most preferable. Incidentally, the average particle size thereof can be measured by using, for example, a laser diffraction/scattering particle size distribution analyzer (e.g., Mastersizer 2000, Ver. 2.00J; manufactured by Malvern Instruments), an image analyzer (e.g., Luzex® AP; manufactured by Nileco) or the like, and can be calculated as the mean of the particle size distribution. The crystallinity thereof can be calculated by measuring the integral intensity of the diffraction peak at a specific angle of diffraction 2θ by using a powder X-ray diffractmeter (e.g., JDX 8030; manufactured by Nippon Denshi).
The crystallinity of Compound 1 in each Sample (hereinafter, may be just referred to as the crystallinity) was calculated by the following method after measuring the diffraction peak of each Sample by changing from 0° to 40° at the angle of diffraction 2θ by a powder X-ray diffractmeter.
A calibration curve used for the calculation of the relative crystallinity was prepared by measuring the integral intensity of the diffraction peak at angle of diffraction 2θ=about 16° using physical mixtures prepared in various ratios and then plotting the ratios of amounts of the “crystalline Compound 1” in the physical mixtures against the integral intensities of the diffraction peaks respectively.
An integral intensity of the diffraction peak of the sample at the angle of diffraction 2θ=about 16° was measured. An amount of the “crystalline Compound 1” in each sample was calculated from the measured integral intensity on the basis of the above-described calibration curve, and the relative crystallinity (%) of each sample was determined from the following formula as the ratio of the amount of “Compound 1” (“crystalline Compound 1” and “an amorphous Compound 1”) against the amount of the “crystalline Compound 1”. A crystallinity (%) was determined by a proportional calculation from the relative crystallinity (%) determined hereinabove and the crystallinity (87.2%) of the unpulverized “crystals of Compound 1”. Relative Crystallinity (%)=(Amount of the “crystalline Compound 1”/Amount of “Compound 1”)×100 <Method for Measurement of Photostability>

[4] = Aggregation and dispersing property during steps for preparing pharmaceutical formulation; assay type: physicochemical
[5] = Solubility in water at room temperature against elapsed time; assay type: physicochemical; settings: 2 mg in water (200 mL) at room temperature
Description: By using Crystals A (the average particle size of crystals: 167 μm, 2 mg) and Microcrystals A (the particle size of microcrystals D100=8.7 μm, 2 mg) obtained in Example 2, the solubility of each of them in water (200 mL) at room temperature was measured.

[6] = Photostability: residual ratio of Compound 1 after irradiation under a fluorescent lamp; assay type: physicochemical; settings: no HPMC, unpulverized; about 5,000 lx fluorescent lamp, 8 hours
Description: Photostability of each sample was traced by measuring the residual ratio (%) of “Compound 1” in the sample according to the following method.
Transparent glass vials, in which the samples were weighed and filled, were stored at about 5,000 lx under a fluorescent lamp, and each sample was sampled 8 hours after the irradiation. The sampled sample was dissolved in a mixed solvent of water and acetonitrile (water:acetonitrile=60:40), and then the amount of “Compound 1” in the sample was determined quantitatively by using a high-performance liquid chromatography (HPLC). Amount of “Compound 1” before irradiation was defined as 100% and the amount of “Compound 1” after irradiation thereto was calculated as the residual ratio (%).
Conditions for the measurement by HPLC are as follows.
Instrument for analysis: Series LC-6 (manufactured by Shimadzu)
Column: Inertsil ODS-2 (φ6×150 mm)
Column temperature: 25° C.
Mobile phase: 50 mmol/L KH2PO4 (pH 6.1, KOH)/acetonitrile=60/40
Detecting condition: UV 248 nm

[7] = crystals synthesized by the prior-art process; cited from earlier work
[8] = drug substance crystals as obtained

## CCn1c(=O)c2c(nc(/C=C/c3ccc(OC)c(OC)c3)n2C)n(CC)c1=O [Compound 1, (E)-8-(3,4-dimethoxystyryl)-1,3-diethyl-7-methyl-3,7-dihydro-1H-purine-2,6-dione]
Adenosine A2 receptor
  adenosine A2 receptor antagonistic activity: shows an adenosine A2 receptor antagonistic activity
[1]
  stability under light: unstable particularly under light

## CCn1c(=O)c2c(nc(/C=C/c3ccc(OC)c(OC)c3)n2C)n(CC)c1=O [Crystals B, (E)-8-(3,4-dimethoxystyryl)-1,3-diethyl-7-methyl-3,7-dihydro-1H-purine-2,6-dione]
[2]
  Cmax (maximum concentration in plasma): 72.6 ± 31.7 ng/mL
[3]; [8]
  crystallinity: 71.6%

## CCn1c(=O)c2c(nc(/C=C/c3ccc(OC)c(OC)c3)n2C)n(CC)c1=O [Microcrystals A, (E)-8-(3,4-dimethoxystyryl)-1,3-diethyl-7-methyl-3,7-dihydro-1H-purine-2,6-dione]
[4]
  aggregation of the crystals during steps for preparing pharmaceutical formulation: no phenomenon of aggregation
[4]; compared with Crystals A
  dispersing property: excellent dispersing property as compared to Crystals A
[5]
  solubility of Compound 1: good solubility
[5]; compared with Crystals A
  dissolving velocity: quick dissolving velocity as compared to Crystals A
[3]; [8]
  crystallinity: 84.6%

## CCn1c(=O)c2c(nc(/C=C/c3ccc(OC)c(OC)c3)n2C)n(CC)c1=O [Microcrystals B, (E)-8-(3,4-dimethoxystyryl)-1,3-diethyl-7-methyl-3,7-dihydro-1H-purine-2,6-dione]
[2]
  Cmax (maximum concentration in plasma): 238 ± 4 ng/mL
[2]; compared with Crystals B
  absorption in oral administration: better absorption in oral administration than Crystals B
[3]; [8]
  crystallinity: 67.3%

## CCn1c(=O)c2c(nc(/C=C/c3ccc(OC)c(OC)c3)n2C)n(CC)c1=O [Unpulverized “Crystals of Compound 1”, (E)-8-(3,4-dimethoxystyryl)-1,3-diethyl-7-methyl-3,7-dihydro-1H-purine-2,6-dione]
[6]
  Residual Rate of “Compound 1”: 100.0%
[7]
  solubility in water: low
[3]; [8]
  crystallinity: 87.2%
[3]; no HPMC, unpulverized
  crystallinity: 87.2%
